Common to all, as to format: cell-based, mouse
Test [1] concerns C2Cl2 myotube cells. Put plainly: Detection of mitochondrial membrane potential (JC-1). The note with it: 1, 2.5, or 5 μg/mL, 24 hours. The method, then:
(§1) The amber extract obtained through extraction by the method of Example 1 was analyzed for its action using myoblasts C2Cl2. The C2Cl2 cells are cells established from mouse regenerating muscles (striated muscles) and are considered to be derived from muscle satellite cells. The myoblasts, when cultured in a differentiation inducing medium, are fused and differentiated into myotube cells.
(§2) The C2Cl2 myoblasts were cultured in Dulbecco's modified Eagle medium (DMEM) supplemented with 10% FBS, penicillin (100 Us/ml), and streptomycin ([…]) under conditions of 37° C. and 5% CO2. Differentiation into myotube cells was induced by medium replacement with DMEM containing 2% horse serum when the cells reached 95% confluency. The experiment was carried out using the differentiated C2Cl2 myotube after 5 to 7 days from the induction of differentiation.
Mitochondrial membrane potential serving as an indicator for mitochondrial activation was also analyzed. C2Cl2 cells were inoculated at 0.5×10^4 cells/well to a 96-well plate and cultured at 37° C. for 48 hours until confluent. […] The mitochondrial membrane potential was measured at green: 485/535 nm (excitation/fluorescence) and red: 535/595 nm (excitation/fluorescence) using JC-1 MitoMP Detection Kit (Dojindo Laboratories).

Test [2] has as its system C2Cl2 myotube cells. Briefly: Detection of mitochondrial ROS. The note with it: 1, 2.5, or 5 μg/mL, 24 hours. The protocol: as §1, §2
Accordingly, in order to confirm this, mitochondrial ROS was detected. C2Cl2 cells were inoculated at 0.5×10^4 cells/well to a 96-well plate and cultured at 37° C. for 48 hours until confluent. After induction of differentiation for 5 days in a differentiation inducing medium, the cells were treated with the amber extract ([…]) or succinic acid (1, 2.5, or 5 μg/mL) for 24 hours. The mitochondrial ROS was measured at 485/565 nm (excitation/fluorescence) using Mitochondrial ROS Detection Assay Kit (Cayman Chemical Company).

The test system of test [3] is C2Cl2 myotube cells. Put plainly: Effect on intracellular ATP concentration (luciferin-luciferase system). The settings on record: 6 hours or 12 hours. The protocol: as §1, §2
Intracellular ATP levels were measured using a luciferin-luciferase system. C2Cl2 cells were inoculated at 0.5×10^4 cells/well to a 96-well plate and cultured at 37° C. for 48 hours until confluent. After induction of differentiation for 5 days, the cells were treated with the amber extract (25 or 50 μg/mL) prepared by the method of Example 1 or succinic acid (2.5 or 5 μg/mL) for 6 hours or 12 hours. The luminescence of each well was measured at 480/530 nm (excitation/luminescence) using a microplate reader (Synergy H1, BioTek Instruments).

`O=C(O)CCC(=O)O` [succinic acid]: the “mitochondrial activation (membrane potential)” value with C2Cl2 myotube cells [1] is “no mitochondrial activation”. For the same compound, in the test on C2Cl2 myotube cells [2], the “mitochondrial activation (mitochondrial ROS)” value is given as “no mitochondrial activation”. Moreover, the ATP concentration result in the test with C2Cl2 myotube cells [3] (2.5 μg/mL) and in the test with C2Cl2 myotube cells [3] (5 ug/mL) was “no change” in each case.

For the origin of these results see patent publication US20260240906A1, “MUSCLE MASS INCREASING AGENT AND ENDURANCE IMPROVING AGENT” (KOHAKU BIO TECHNOLOGY CO., LTD., priority 2023, published 2026).
